# Data: WO2005094256A2, “Polypeptides toxic to nematodes, and methods of use” (Individual, priority 2004, dated 2005)
# Structures can show the parent of a compound that is named as a salt. *1 amine or outer side, *2 acyl side, *3 side chain or, on linkers, in order; H or OH if unused. Where a SMILES comes first, the peptide text is derived from it. [ ]: non-standard residue; d: D form. The star is where a group is joined. Sta = CC(C)C[C@H](N)[C@@H](O)CC(=O)O; Isovaleryl = CC(C)CC(=O)*; CO = O=C([*:1])[*:2]
# System: serratia metalloprotease SMP #1 from Serratia marcescens NRRL B-23112, SEQ ID NO:2
# Experiment: Inhibition of protease activity of SMP #1: residual proteolytic (casein digestion) activity after addition of inhibitor, 25°C, 30 minutes
# Format: biochemical
compound,measurement,setting,value
O=C(O)CN(CCN(CC(=O)O)CC(=O)O)CC(=O)O [EDTA],inhibition of SMP #1,9μg/ml,inhibited
CC(C)C[C@H](NC(=O)[C@@H](NC(=O)N[C@@H](Cc1ccccc1)C(=O)O)[C@@H]1CCN=C(N)N1)C(=O)N[C@H](C=O)Cc1ccccc1 [chymostatin],inhibition of SMP #1,50μg/ml,not inhibited
Cl.NCCc1ccc(S(=O)(=O)F)cc1 [Pefabloc SC],inhibition of SMP #1,2000μg/ml,not inhibited
CC(=O)N[C@@H](CC(C)C)C(=O)N[C@@H](CC(C)C)C(=O)N[C@H](C=O)CCCNC(=N)N [leupeptin],inhibition of SMP #1,4μg/ml,not inhibited
CC(C)CC(=O)N[C@H](C(=O)N[C@H](C(=O)N[C@@H](CC(C)C)[C@@H](O)CC(=O)N[C@@H](C)C(=O)N[C@@H](CC(C)C)[C@@H](O)CC(=O)O)C(C)C)C(C)C [pepstatin] (Isovaleryl-VV[Sta]A[Sta]-OH),inhibition of SMP #1,4μg/ml,not inhibited
CC(C)C[C@H](NC(=O)[C@@H](O)[C@H](N)Cc1ccccc1)C(=O)O [bestatin],inhibition of SMP #1,80μg/ml,not inhibited
OCCS [2-mercaptoethanol],activity of SMP #1 retained in the presence of 2-mercaptoethanol,0.5% v/v,retains full activity
CC(C)C[C@H](NP(=O)(O)O[C@@H]1O[C@@H](C)[C@H](O)[C@@H](O)[C@H]1O)C(=O)N[C@@H](Cc1c[nH]c2ccccc12)C(=O)O [phosphoramidon],inhibition of SMP #1,660μg/ml,not inhibited
CC(C)C[C@H](NC(=O)[C@H]1O[C@@H]1C(=O)O)C(=O)NCCCCNC(=N)N [E-64],inhibition of SMP #1,20μg/ml,not inhibited
O=S(=O)(F)Cc1ccccc1 [phenylmethylsulfonyl fluoride],inhibition of SMP #1,400μg/ml,not inhibited
CC(C)[C@H](NC(=O)[C@H](CCCNC(=N)N)NC(=O)N[C@@H](Cc1ccccc1)C(=O)O)C(=O)N[C@H](C=O)CCCNC(=N)N [antipain dihydrochloride] ({Phe-CO}-Arg-Val-Arg-aldehyde),inhibition of SMP #1,120μg/ml,not inhibited
